# Experimental data: US9394282B2, “Pyrazole carboxamides as Janus kinase inhibitors” (Merck Sharp & Dohme Corp., priority 2011, dated 2016)
# pIC50: −log10 of the molar value.
# Assays:
# [1] = target: JAK2 (Homo sapiens (Human), UniProt O60674); test: Jak biochemical HTRF assay, JAK2; conditions: recombinant purified GST-tagged catalytic domain, HTRF format
# Source text: (§1) Jak Biochemical HTRF Assay Protocol
# (§2) Subsequent reagent additions employed an Agilent Bravo.
# [2] = target: JAK1 (Homo sapiens (Human), UniProt P23458); test: Jak biochemical HTRF assay, JAK1; conditions: recombinant purified GST-tagged catalytic domain; HTRF format; [ATP] 31.8 μM
# Source text: as §1, §2
# JAK2, sequence (O60674 849-1124): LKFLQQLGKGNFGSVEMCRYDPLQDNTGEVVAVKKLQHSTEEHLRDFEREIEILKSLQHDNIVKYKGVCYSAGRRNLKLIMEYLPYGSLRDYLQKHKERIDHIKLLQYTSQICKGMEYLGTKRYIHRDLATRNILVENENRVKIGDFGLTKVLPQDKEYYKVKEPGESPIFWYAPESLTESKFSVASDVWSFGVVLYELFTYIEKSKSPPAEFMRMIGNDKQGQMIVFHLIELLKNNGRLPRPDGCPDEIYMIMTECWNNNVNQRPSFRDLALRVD
# JAK1, sequence (P23458 875-1153): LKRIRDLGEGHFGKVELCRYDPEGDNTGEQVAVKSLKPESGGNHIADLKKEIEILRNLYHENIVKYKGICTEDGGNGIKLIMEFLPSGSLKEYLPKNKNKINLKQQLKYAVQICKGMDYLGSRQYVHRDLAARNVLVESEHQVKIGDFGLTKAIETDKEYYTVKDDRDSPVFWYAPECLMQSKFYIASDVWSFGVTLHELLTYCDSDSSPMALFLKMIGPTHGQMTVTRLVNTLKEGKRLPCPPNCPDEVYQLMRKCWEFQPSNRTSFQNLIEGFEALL
Structure (SMILES),pIC50 ([1]; [ATP] 8.5 μM),pIC50 [2],pIC50 ([1]; [ATP] […])
"N#C[C@@H]1CN(C(=O)OCCCc2ccccc2)CC[C@@H]1n1cc(C(N)=O)c(Nc2ccc(F)cc2)n1 (racemic) [Example 5-55, 3-phenylpropyl (3R,4S and 3S,4R)-4-{4-carbamoyl-3-[(4-fluorophenyl)amino]-1H-pyrazol-1-yl}-3-cyanopiperidine-1-carboxylate]",< 5.83,6.46,–
"CC(OC(=O)N1CC[C@@H](n2cc(C(N)=O)c(Nc3ccc(F)cc3)n2)[C@H](C#N)C1)C1CC1 (mixture of isomers) [Example 5-35, 1-cyclopropylethyl (3R,4R and 3S,4S)-4-{4-carbamoyl-3-[(4-fluorophenyl)amino]-1H-pyrazol-1-yl}-3-cyanopiperidine-1-carboxylate]",6.33,7.72,–
"N#C[C@@H]1CCN(C(=O)OC2COC2)CC1n1cc(C(N)=O)c(Nc2ccc(F)cc2)n1 (mixture of isomers) [Example 5-89, oxetan-3-yl (3S,4R and 3R,4S)-3-{4-carbamoyl-3-[(4-fluorophenyl)amino]-1H-pyrazol-1-yl}-4-cyanopiperidine-1-carboxylate]",7.37,8.52,–
"CC(C)(COC(=O)N1CC[C@@H](C#N)[C@H](n2cc(C(N)=O)c(Nc3ccc(F)cc3)n2)C1)n1cccn1 (mixture of isomers) [Example 5-92, 2-methyl-2-(1H-pyrazol-1-yl)propyl (3S,4Rand 3R, 4S)-3-{4-carbamoyl-3-[(4-fluorophenyl)amino]-1H-pyrazol-1-yl}-4-cyanopiperidine-1-carboxylate]",–,7.57,6.42
"N#C[C@H]1CCNCC1n1cc(C(N)=O)c(Nc2ccc(F)cc2)n1 (mixture of isomers) [Example 3-1, 1-[(3R,4S and 3S,4R)-4-cyanopiperidin-3-yl]-3-[(4-fluorophenyl)amino]-1H-pyrazole-4-carboxamide]",6.90,7.89,–
"N#C[C@@H]1CN(C(=O)OC2Cc3ccccc3C2)CC[C@H]1n1cc(C(N)=O)c(Nc2ccc(F)cc2)n1 (racemic) [Example 5-37, 2,3-dihydro-1H-inden-2-yl (3R,4R and 3S,4S)-4-{4-carbamoyl-3-[(4-fluorophenyl)amino]-1H-pyrazol-1-yl}-3-cyanopiperidine-1-carboxylate]",< 5.83,7.27,–
"CC(OC(=O)N1CC[C@@H](C#N)C(n2cc(C(N)=O)c(Nc3ccc(F)cc3)n2)C1)C1CC1 (mixture of isomers) [Example 5-73, 1-cyclopropylethyl (3S,4R and 3R,4S)-3-{4-carbamoyl-3-[(4-fluorophenyl)amino]-1H-pyrazol-1-yl}-4-cyanopiperidine-1-carboxylate]",7.11,8.22,–
"N#C[C@@H]1CN(C(=O)OC(CF)CF)CC[C@H]1n1cc(C(N)=O)c(Nc2ccc(F)cc2)n1 (racemic) [Example 5-31, 2-fluoro-1-(fluoromethyl)ethyl (3R,4R and 3S,4S)-4-{4-carbamoyl-3-[(4-fluorophenyl)amino]-1H-pyrazol-1-yl}-3-cyanopiperidine-1-carboxylate]",6.88,8.22,–
"N#C[C@@H]1CCN(C(=O)OCC(F)(F)CO)CC1n1cc(C(N)=O)c(Nc2ccc(F)cc2)n1 (mixture of isomers) [Example 5-74, 2,2-difluoro-3-hydroxypropyl (3S,4R and 3R,4S)-3-{4-carbamoyl-3-[(4-fluorophenyl)amino]-1H-pyrazol-1-yl}-4-cyanopiperidine-1-carboxylate]",7.85,9.00,–

# Continued, values first:
pIC50 ([1]; [ATP] 8.5 μM),pIC50 [2],pIC50 ([1]; [ATP] […]),Structure (SMILES)
7.89,8.70,–,"N#C[C@@H]1CCN(Cc2ccon2)C[C@H]1n1cc(C(N)=O)c(Nc2ccc(F)cc2)n1 (racemic) [Example 6-3, 1-[(3S,4R and 3R,4S)-4-cyano-1-(isoxazol-3-ylmethyl)piperidin-3-yl]-3-[(4-fluorophenyl)amino]-1H-pyrazole-4-carboxamide]"
7.13,8.22,–,"N#C[C@@H]1CCN(CCC2CCOCC2)C[C@H]1n1cc(C(N)=O)c(Nc2ccc(F)cc2)n1 (racemic) [Example 6-10, 1-{(3S,4R and 3R,4S)-4-cyano-1-[2-(tetrahydro-2H-pyran-4-yl)ethyl]piperidin-3-yl}-3-[(4-fluorophenyl)amino]-1H-pyrazole-4-carboxamide]"
7.70,9.00,–,"Cc1c(CN2CC[C@@H](C#N)[C@H](n3cc(C(N)=O)c(Nc4ccc(F)cc4)n3)C2)cnn1C (racemic) [Example 6-15, 1-{(3S,4R and 3R,4S)-4-cyano-1-[(1,5-dimethyl-1H-pyrazol-4-yl)methyl]piperidin-3-yl}-3-[(4-fluorophenyl)amino]-1H-pyrazole-4-carboxamide]"
